Data as given in patent publication US20200282052A1, “A COMBINATION THERAPY WITH APATINIB FOR THE TREATMENT OF CANCER” (Elevar Therapeutics, Inc., priority 2017, published 2020).
Structures can show the parent of a compound that is named as a salt.

Columns and labels:
[1] = in vivo; cited from earlier work
[2] = test system: mouse LL/2 lung carcinoma; experiment: LL/2 lung carcinoma syngeneic mouse model; format: in vivo; conditions: day 20; apatinib mesylate 300 mg/kg p.o. q.d., anti-muPD-1 antibody 10 mg/kg i.p. b.i.w.; C57BL/6 mice
Method: 40 female C57BL/6 mice purchased from Jackson Laboratories were enrolled on the study. Animals were housed for stabilization period. Animals were housed in individual HEPA ventilated cages (Innocage® IVC, Innovive USA). Fluorescent lighting was provided on a 12-hour cycle. Temperature and humidity was monitored and recorded daily and maintained to the maximum extent possible between 68-74° F. (20-23° C.) and 30-70% humidity, respectively. 2920×.10 18% soy irradiated rodent feed (Harlan) and autoclaved acidified water (pH 2.5-3) was provided ad libitum.
For inoculation, LL/2 cell viability was at 98%. Cryo vials containing LL/2 cells were thawed and prepared for injection into mice. On study day −3 cells were washed in PBS, counted, and re-suspended in cold PBS at concentrations of 250,000 viable cells/100 μL. Cell suspensions were mixed with PBS and kept on ice during transport to the vivarium. Cells for injections were prepared by withdrawing the PBS-cell mixture into a chilled 1 mL Lure-lok syringe fitted with a 26 7/8 G (0.5 mm×22 mm) needle. […]
Animals were monitored weekly for palpable tumors, or any changes in appearance or behavior. Once tumors were palpable, they were measured 3 times a week using calipers. Tumor volume was calculated using the following equation (longest diameter×shortest diameter 2)/2.
Body weight was measured at least three times a week. […]

VEGFR-2 = VEGFR-2 (Homo sapiens, UniProt P35968); conditions: nonclinical studies; cited from earlier work
Sequence of VEGFR-2 (P35968 20-1356, species assumed): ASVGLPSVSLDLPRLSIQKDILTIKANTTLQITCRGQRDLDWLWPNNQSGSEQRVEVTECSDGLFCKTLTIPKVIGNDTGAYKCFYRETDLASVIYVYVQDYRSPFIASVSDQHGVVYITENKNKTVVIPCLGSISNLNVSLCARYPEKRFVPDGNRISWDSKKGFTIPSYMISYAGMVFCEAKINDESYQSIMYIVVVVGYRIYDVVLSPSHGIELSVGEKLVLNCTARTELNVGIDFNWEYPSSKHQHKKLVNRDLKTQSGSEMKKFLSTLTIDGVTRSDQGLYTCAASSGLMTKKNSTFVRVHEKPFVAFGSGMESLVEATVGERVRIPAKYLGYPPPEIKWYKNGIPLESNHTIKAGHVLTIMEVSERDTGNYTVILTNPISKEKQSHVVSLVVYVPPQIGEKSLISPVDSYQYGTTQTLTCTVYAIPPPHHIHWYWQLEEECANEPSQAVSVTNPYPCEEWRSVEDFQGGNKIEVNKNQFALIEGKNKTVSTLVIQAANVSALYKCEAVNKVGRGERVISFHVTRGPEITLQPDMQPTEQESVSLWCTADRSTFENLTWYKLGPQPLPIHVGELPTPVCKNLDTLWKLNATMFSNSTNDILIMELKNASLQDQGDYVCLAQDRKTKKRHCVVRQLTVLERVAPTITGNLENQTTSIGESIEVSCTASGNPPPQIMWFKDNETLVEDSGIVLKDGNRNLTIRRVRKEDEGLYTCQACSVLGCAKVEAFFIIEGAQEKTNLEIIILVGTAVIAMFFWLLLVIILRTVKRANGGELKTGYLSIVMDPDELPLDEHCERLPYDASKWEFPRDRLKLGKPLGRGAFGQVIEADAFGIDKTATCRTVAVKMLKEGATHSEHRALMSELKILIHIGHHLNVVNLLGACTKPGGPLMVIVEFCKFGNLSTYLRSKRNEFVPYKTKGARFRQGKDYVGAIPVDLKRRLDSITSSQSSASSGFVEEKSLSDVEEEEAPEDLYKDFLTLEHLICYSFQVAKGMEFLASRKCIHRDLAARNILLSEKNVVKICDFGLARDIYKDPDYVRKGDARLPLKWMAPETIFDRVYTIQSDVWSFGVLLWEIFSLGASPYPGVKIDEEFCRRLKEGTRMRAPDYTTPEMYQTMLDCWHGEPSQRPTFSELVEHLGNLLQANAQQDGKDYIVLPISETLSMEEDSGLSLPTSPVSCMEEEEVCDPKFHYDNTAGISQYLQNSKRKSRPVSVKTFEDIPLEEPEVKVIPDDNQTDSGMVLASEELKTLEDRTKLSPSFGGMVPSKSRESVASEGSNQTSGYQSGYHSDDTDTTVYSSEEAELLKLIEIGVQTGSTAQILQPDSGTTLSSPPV

[3] = test system: tumor bearing animal models; conditions: cited from earlier work
[4] = healthy volunteers, cited from earlier work
[5] = test system: advanced or metastatic gastric cancer; conditions: cited from earlier work
c-Kit = c-Kit (Homo sapiens, UniProt P10721); conditions: cited from earlier work
Sequence of c-Kit (P10721 26-976): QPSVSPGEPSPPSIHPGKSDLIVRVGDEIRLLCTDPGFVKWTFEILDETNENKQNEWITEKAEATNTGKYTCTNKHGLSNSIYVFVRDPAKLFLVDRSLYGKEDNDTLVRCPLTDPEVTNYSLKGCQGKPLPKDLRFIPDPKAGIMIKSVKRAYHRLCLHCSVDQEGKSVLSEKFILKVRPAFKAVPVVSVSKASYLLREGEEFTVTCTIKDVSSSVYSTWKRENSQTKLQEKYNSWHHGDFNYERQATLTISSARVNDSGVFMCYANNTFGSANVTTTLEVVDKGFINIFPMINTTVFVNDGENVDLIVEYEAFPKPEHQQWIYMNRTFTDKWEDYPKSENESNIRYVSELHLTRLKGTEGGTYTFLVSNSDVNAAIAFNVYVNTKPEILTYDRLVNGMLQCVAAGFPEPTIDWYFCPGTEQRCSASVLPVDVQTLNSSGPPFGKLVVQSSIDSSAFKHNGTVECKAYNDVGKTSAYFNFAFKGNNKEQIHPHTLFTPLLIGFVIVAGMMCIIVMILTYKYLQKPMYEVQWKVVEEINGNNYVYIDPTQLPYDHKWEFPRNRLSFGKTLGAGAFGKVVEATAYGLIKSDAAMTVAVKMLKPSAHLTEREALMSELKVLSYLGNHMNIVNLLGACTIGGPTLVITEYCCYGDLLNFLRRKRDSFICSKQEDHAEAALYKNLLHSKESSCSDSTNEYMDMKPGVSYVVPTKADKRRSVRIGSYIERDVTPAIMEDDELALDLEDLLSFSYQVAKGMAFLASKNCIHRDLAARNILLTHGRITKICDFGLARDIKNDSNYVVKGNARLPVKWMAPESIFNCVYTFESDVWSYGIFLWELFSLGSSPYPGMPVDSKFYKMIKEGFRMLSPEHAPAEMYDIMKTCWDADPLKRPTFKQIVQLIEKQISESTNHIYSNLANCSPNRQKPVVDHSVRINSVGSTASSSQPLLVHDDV

c-SRC = c-SRC (Homo sapiens, UniProt P12931); conditions: cited from earlier work
Sequence of c-SRC (P12931 whole entry, species assumed): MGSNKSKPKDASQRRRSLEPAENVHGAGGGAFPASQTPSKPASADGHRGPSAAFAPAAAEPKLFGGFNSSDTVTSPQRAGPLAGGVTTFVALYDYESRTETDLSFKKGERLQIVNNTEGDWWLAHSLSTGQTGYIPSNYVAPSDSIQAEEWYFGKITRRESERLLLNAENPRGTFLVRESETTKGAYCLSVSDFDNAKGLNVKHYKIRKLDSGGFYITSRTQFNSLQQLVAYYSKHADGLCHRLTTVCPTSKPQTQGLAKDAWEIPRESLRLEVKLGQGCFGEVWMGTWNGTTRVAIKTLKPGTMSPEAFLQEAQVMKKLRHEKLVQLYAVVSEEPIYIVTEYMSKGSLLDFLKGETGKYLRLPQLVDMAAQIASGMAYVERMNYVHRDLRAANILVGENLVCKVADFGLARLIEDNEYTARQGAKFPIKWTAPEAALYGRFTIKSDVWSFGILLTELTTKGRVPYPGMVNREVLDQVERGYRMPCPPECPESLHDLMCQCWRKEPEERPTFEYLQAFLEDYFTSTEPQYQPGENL

[6] = single dose, cited from earlier work

For Cc1nc(Nc2ncc(C(=O)Nc3c(C)cccc3Cl)s2)cc(N2CCN(CCO)CC2)n1 [Dasatinib], the “Safety Profile: Central nervous system” value [1] is listed as “R”, the “Safety Profile: Liver/Bile” value [1] is listed as “R” and the “Safety Profile: Musculoskeletal/bone” value [1] is listed as “R”. The “Safety Profile: Renal” value [1] was “R”.
In the case of C#Cc1cccc(Nc2ncnc3cc(OCCOC)c(OCCOC)cc23)c1 [Erlotinib], the “Safety Profile: Blood/lymph system” value [1] is listed as “R”, the “Safety Profile: Central nervous system” value [1] is listed as “R” and the “Safety Profile: Liver/Bile” value [1] is listed as “R”.
In the case of CS(=O)(=O)CCNCc1ccc(-c2ccc3ncnc(Nc4ccc(OCc5cccc(F)c5)c(Cl)c4)c3c2)o1 [Lapatinib], the “Safety Profile: Central nervous system” value [1] is given as “R” and the “Safety Profile: Heart” value [1] is given as “R”.
In the case of Cc1cn(-c2cc(NC(=O)c3ccc(C)c(Nc4nccc(-c5cccnc5)n4)c3)cc(C(F)(F)F)c2)cn1 [Nilotinib], the “Safety Profile: Central nervous system” value [1] is given as “R”, the “Safety Profile: GI” value [1] is given as “R” and the “Safety Profile: Musculoskeletal/bone” value [1] is given as “R”. For the same compound, the “Safety Profile: Renal” value [1] was “R” and the “Safety Profile: Vascular” value [1] was “R”.
For Cc1ccc(Nc2nccc(N(C)c3ccc4c(C)n(C)nc4c3)n2)cc1S(N)(=O)=O [Pazopanib], the “Safety Profile: Heart” value [1] is given as “R”.
For N#CC1(c2ccc(NC(=O)c3cccnc3NCc3ccncc3)cc2)CCCC1 [Rivoceranib, N-[4-(1-cyanocyclopentyl)phenyl]-2-{[(pyridin-4-yl)methyl]amino} pyridine-3-carboxamide], the “% Tumor growth inhibition” value [2] is listed as 37%, the “binding to VEGFR-2” value (VEGFR-2) is listed as “selectively binds” and the “side effects in animals” value ([3]; at efficacious doses) is listed as “minimal side effects”. For the same compound, the “efficacy in various tumor bearing animal models” value ([3]; nonclinical studies) was “efficacious”, the “food effects on the bioavailability” value ([4]; 81 mg rivoceranib dose) was “minimal” and the “increase in bioavailability with food” value ([4]; 201 mg dose) was 20-30%. The “median overall survival (OS) compared to placebo” value ([5]; Phase 3) was “prolonged”, the “median progression-free survival (PFS) compared to placebo” value ([5]; Phase 3) was “prolonged” and the “patients with Grade ¾ adverse reactions” value ([5]; hypertension, HFS, proteinuria, fatigue, anorexia, and elevated aminotransferase) was “more than 2%”. For the same compound, the “inhibition of c-Kit tyrosine kinase” value (c-Kit) was “mildly inhibits” and the “inhibition of c-SRC tyrosine kinase” value (c-SRC) was “mildly inhibits”.
In the case of CNC(=O)c1cc(Oc2ccc(NC(=O)Nc3ccc(Cl)c(C(F)(F)F)c3)cc2)ccn1 [Sorafenib], the “Safety Profile: Central nervous system” value [1] is listed as “R”, the “Safety Profile: GI” value [1] is listed as “R” and the “Safety Profile: Heart” value [1] is listed as “R”. The “Safety Profile: Liver/Bile” value [1] was “R”, the “Safety Profile: Lung airways” value [1] was “R” and the “Safety Profile: Musculoskeletal/bone” value [1] was “R”. For the same compound, the “Safety Profile: Renal” value [1] was “R”.
In the case of CCN(CC)CCNC(=O)c1c(C)[nH]c(/C=C2\C(=O)Nc3ccc(F)cc32)c1C [Sunitinib], the “Safety Profile: Central nervous system” value [1] is given as “R”, the “Safety Profile: Heart” value [1] is given as “R” and the “Safety Profile: Liver/Bile” value [1] is given as “R”.
For N#CC1(c2ccc(NC(=O)c3cccnc3NCc3ccncc3)cc2)CCCC1 [rivoceranib mesylate], the “AUC0-∞ in Chinese and Japanese subjects compared to Caucasian subjects” value ([6]; healthy male) is listed as “slightly higher”, the “Cmax in Chinese and Japanese subjects compared to Caucasian subjects” value ([6]; healthy male) is listed as “slightly higher” and the t1/2 ([6]; similar amongst Caucasian, Japanese and Chinese groups) is listed as 7.5 to 8 h.
